Results published in patent US20240376120A1, “CAMPTOTHECIN COMPOUND, PREPARATION METHOD THEREFOR AND USE THEREOF” (priority 2021, published 2024).
Read-outs that look alike come from different tables or passages of the source.

Assays:
Assay type in all cases: cell-based
Settings in all cases: Homo sapiens, read-out: Proliferation inhibition IC50
[1] = tested on: MDA-MB-231 cells (human breast cancer cells); assay: MDA-MB-231 cell proliferation inhibitory assay (CellTiter-Glo)
Procedure: (§1) • 1). […] Resuspend an appropriate amount of cell suspension to 3000 cells/100 μL according to the count, mixed well and then put the corresponding number of cells into a 96-well plate by pipette. • 3). Each hole of the edge was sealed with 100 μL DPBS and put into an incubator for culture. • 4). Day 1 drug addition: Prepare the storage solution of the compound to be tested 1 hour in advance. 24 h after plating, the culture medium was gradiently diluted to a concentration twice the final concentration of each group. Take out the plated cells from the incubator and add 100 μL of the corresponding 2-fold concentration medium to each well by pipette. • 5). Day 1 detected: Take out an appropriate amount of CTG 1 h in advance and the plate was allowed to equilibrate at room temperature for 30 min. 100 μL of CTG was added to each well and shaken for 5 mins, and then standed in the dark for 5 mins, the luminescence value was detected by ELISA. • 6). Day 4 detection: Take an appropriate amount of CTG 1 h in advance and rewarm it at room temperature in the dark. At the same time, take out the plate to be tested from the incubator and leave it to equilibrate at room temperature for 30 minutes; 72 h after adding the drug, 100 μL of culture medium was sucked out with pipette carefully from each cell well, and 100 μL of CTG was added. The mixture was shaken for 5 min, and after equilibration in the dark for 5 min, the luminescence value was detected with ELISA. • 7). Analyze data and write detailed experimental records.
(§2) Input the compound into graphpad prism to obtain the corresponding IC50 value.

[2] = tested on: MCF-7 cells (human breast cancer cells); assay: MCF-7 cell proliferation inhibitory assay (CellTiter-Glo)
Procedure: • 1). […] Resuspend an appropriate amount of cell suspension to 4000 cells/100 μL according to the count, mixed well and then put the corresponding number of cells into a 96-well plate by pipette. • 3). Each hole of the edge was sealed with 100 μL DPBS and put into an incubator for culture. • 4). Day 1 drug addition: Prepare the storage solution of the compound to be tested 1 hour in advance. 24 h after plating, the culture medium was gradiently diluted to a concentration twice the final concentration of each group. Take out the plated cells from the incubator and add 100 μL of the corresponding 2-fold concentration medium to each well by pipette.
Day 1 detected: Take out the plate to be tested and an appropriate amount of CTG in advance and rewarm it at room temperature in the dark. 50 μL of CTG was added to each well at 24 h. Shake with the oscillator for 5 minutes, and after balancing in the dark for 5 minutes, detect the luminescence value with a microplate reader; The mixture was shaken for 5 min, and after equilibration in the dark for 5 min, the luminescence value was detected with ELISA. • 6). Day 4 detection: Take an appropriate amount of CTG 1 h in advance and rewarm it at room temperature in the dark. At the same time, take out the plate to be tested from the incubator and leave it to equilibrate at room temperature for 30 minutes; 72 h after adding the drug, 100 μL of culture medium was sucked out with pipette carefully from each cell well, and 50 μL of CTG was added. The mixture was shaken for 5 min, and after equilibration in the dark for 5 min, the luminescence value was detected with ELISA analyzer. • 7). Data analysis and processed.
Collect data and convert it into survival rate: Inhibition rate (%)=(100−(OD value of compound-OD value on the first day)/(OD value of control well-OD value on the first day))×100%
as §2

[3] = tested on: MDA-MB-435s cells (human melanoma cells); assay: MDA-MB-435s cell proliferation inhibitory assay (CellTiter-Glo)
Procedure: as §1
Collect data and convert it into survival rate: Inhibition rate (%)=(100−(OD value of compound−OD value on the first day)/(OD value of control well-OD value on the first day))×100%
as §2

[4] = MDA-MB-231 cells, 72 h after adding the drug, Table 2
[5] = MCF7, MCF-7 cells, 72 h after adding the drug, Table 1
[6] = MDA-MB-435s cells, 72 h after adding the drug, Table 3

SMILES | IC50 ([1]; MDA-MB-231, 72 h) [nM] | IC50 ([2]; MCF7, 72 h) [nM] | IC50 ([3]; MDA-MB-435S, 72 h) [nM] | IC50 [1, 4] [nM] | IC50 [2, 5] [nM] | IC50 [3, 6] [nM]
[2H]C([2H])(O)C(=O)N[C@@H](C)c1c2c(nc3cc(F)c(C)cc13)-c1cc3c(c(=O)n1C2)COC(=O)[C@]3(O)CC [Example 20] | 120 | 7.8 | 2.7 | – | – | –
CC[C@@]1(O)C(=O)OCc2c1cc1n(c2=O)Cc2c-1nc1cc(F)c(C)cc1c2[C@@H](N)CO [Example 39a] | 25.9 | 9.8 | 2.12 | – | – | –
CC[C@@]1(O)C(=O)OCc2c1cc1n(c2=O)Cc2c-1nc1cc(F)c(C)cc1c2[C@H](C)N1CCN(C)CC1 [Example 42a] | 125 | 14.6 | 3.21 | – | – | –
CC[C@@]1(O)C(=O)OCc2c1cc1n(c2=O)Cc2c-1nc1cc(F)c(OC)cc1c2[C@@H](C)O [Example 30d] | 28.1 | 4.1 | 1.2 | – | – | –
CC[C@@]1(O)C(=O)OCc2c1cc1n(c2=O)Cc2c-1nc1cc(F)c(OC)cc1c2[C@H](C)N [Example 30a] | 11.6 | 6.3 | 3.3 | – | – | –
CC[C@@]1(O)C(=O)OCc2c1cc1n(c2=O)Cc2c-1nc1cc(F)c(C)cc1c2[C@H](C)NC(=O)[C@@H](O)C1CC1 [Example 17] | 96.7 | 7.8 | 6.3 | – | – | –
CC[C@@]1(O)C(=O)OCc2c1cc1n(c2=O)Cc2c-1nc1cc3c(cc1c2[C@H](C)N)OCCO3 [Example 36a] | 26.3 | 15.2 | 6.33 | – | – | –
CC[C@@]1(O)C(=O)OCc2c1cc1n(c2=O)Cc2c-1nc1cc(F)c(C)cc1c2[C@H](C)NCCN(C)C [Example 25a] | 40.2 | 25.6 | 6.3 | – | – | –
CC[C@@]1(O)C(=O)OCc2c1cc1n(c2=O)Cc2c-1nc1cc(F)c(C)cc1c2[C@H](C)NC(=O)[C@@H](O)C(F)(F)F [Example 19] | 261 | 15.2 | 15.3 | – | – | –
CC[C@@]1(O)C(=O)OCc2c1cc1n(c2=O)Cc2c-1nc1cc(F)c(F)cc1c2[C@H](C)N [Example 33a] | 10.9 | 6.5 | 2.36 | – | – | –
[2H]C([2H])([2H])c1cc2c([C@H](C)N)c3c(nc2cc1F)-c1cc2c(c(=O)n1C3)COC(=O)[C@]2(O)CC [Example 23] | 7.7 | 2.5 | 0.76 | – | – | –
CC[C@@]1(O)C(=O)OCc2c1cc1n(c2=O)Cc2c-1nc1cc(F)c(C)cc1c2[C@H](C)NC(C)=O [Compound 1f-2] | 74.2 | 11.6 | 3.5 | – | – | –
CC[C@@]1(O)C(=O)OCc2c1cc1n(c2=O)Cc2c-1nc1cc(F)c(C)cc1c2[C@H](C)NC(=O)[C@@H](C)O [Example 15] | 141 | 10.6 | 4.2 | – | – | –
CC[C@@]1(O)C(=O)OCc2c1cc1n(c2=O)Cc2c-1nc1cc(F)c(C)cc1c2[C@@H]1CCCN1 [Example 8] | 210 | 10.3 | 35.2 | – | – | –
CC[C@@]1(O)C(=O)OCc2c1cc1n(c2=O)Cc2c-1nc1cc(F)c(C)cc1c2[C@H](C)NC(=O)C1CCCCC1O (some centres unmarked) [Example 26] | 150 | 35.2 | 5.6 | – | – | –
CC[C@@]1(O)C(=O)OCc2c1cc1n(c2=O)Cc2c-1nc1ccc(OC)cc1c2[C@@H](C)N [Example 31b] | 9.2 | 4.1 | 1 | – | – | –
CC[C@@]1(O)C(=O)OCc2c1cc1n(c2=O)Cc2c-1nc1ccccc1c2[C@H](C)N [Example 4] | 280 | 10.2 | 16.3 | – | – | –
CC[C@@]1(O)C(=O)OCc2c1cc1n(c2=O)Cc2c-1nc1cc(F)c(F)cc1c2[C@@H](C)N [Example 33b] | 24.3 | 8.5 | 0.85 | – | – | –
CC[C@@]1(O)C(=O)OCc2c1cc1n(c2=O)Cc2c-1nc1cc(F)c(C)cc1c2[C@@H](C)NCCN(C)C [Example 25b] | 60.9 | 35.1 | 9.6 | – | – | –

SMILES | IC50 ([1]; MDA-MB-231, 72 h) [nM] | IC50 ([2]; MCF7, 72 h) [nM] | IC50 ([3]; MDA-MB-435S, 72 h) [nM] | IC50 [1, 4] [nM] | IC50 [2, 5] [nM] | IC50 [3, 6] [nM]
CC[C@@]1(O)C(=O)OCc2c1cc1n(c2=O)Cc2c-1nc1cc(F)c(C)cc1c2[C@H](C)N(C)C [Example 22] | 60.8 | 9.3 | 5.6 | – | – | –
CC[C@@]1(O)C(=O)OCc2c1cc1n(c2=O)Cc2c-1nc1cc(F)c(C)cc1c2[C@H](C)NC(=O)C1(O)CC1 [Example 16] | 100 | 12.3 | 8.2 | – | – | –
CC[C@@]1(O)C(=O)OCc2c1cc1n(c2=O)Cc2c-1nc1cc(F)c(C)cc1c2[C@H](C)NC(=O)[C@H](C)O [Example 14] | 88.6 | 8.3 | 3.8 | – | – | –
CC[C@@]1(O)C(=O)OCc2c1cc1n(c2=O)Cc2c-1nc1cc(F)c(C)cc1c2[C@@H](C)NS(C)(=O)=O [Example 26a] | 89.2 | 13.3 | 2.8 | – | – | –
CC[C@@]1(O)C(=O)OCc2c1cc1n(c2=O)Cc2c-1nc1cc(F)c(C)cc1c2[C@H](C)NCCNC [Example 25c] | 35.6 | 15.3 | 3.3 | – | – | –
CC[C@@]1(O)C(=O)OCc2c1cc1n(c2=O)Cc2c-1nc1cc(F)c(C)cc1c2[C@@H](C)NC(C)=O [Compound 1f-1] | 110 | 15.2 | 5.8 | – | – | –
CC[C@@]1(O)C(=O)OCc2c1cc1n(c2=O)Cc2c-1nc1cc(F)c(C)cc1c2[C@@H](C)NCCNC [Example 25d] | – | – | – | 50.3 | 22.3 | 5.2
CC[C@@]1(O)C(=O)OCc2c1cc1n(c2=O)Cc2c-1nc1cc(F)c(C)cc1c2[C@@H](C)N1CCN(C)CC1 [Example 42b] | 75.6 | 6.6 | 2.56 | – | – | –
CC[C@@]1(O)C(=O)OCc2c1cc1n(c2=O)Cc2cc3ccccc3nc2-1 [Camptothecin] | – | 42.2 | 10.2 | – | – | –
CC[C@@]1(O)C(=O)OCc2c1cc1n(c2=O)Cc2c-1nc1cc3c(cc1c2[C@H](C)N)OCO3 [Example 35a] | 20.6 | 10.3 | 3.33 | – | – | –
CC[C@@]1(O)C(=O)OCc2c1cc1n(c2=O)Cc2c-1nc1ccc(C(F)F)cc1c2[C@H](C)N [Example 32a] | 16.7 | 7.5 | 3.37 | – | – | –
[2H]C([2H])([2H])[C@H](N)c1c2c(nc3cc(F)c(C)cc13)-c1cc3c(c(=O)n1C2)COC(=O)[C@]3(O)CC [Example 43a] | – | – | – | 16.8 | 5.1 | 3.31
CC[C@@]1(O)C(=O)OCc2c1cc1n(c2=O)Cc2c-1nc1cc(F)c(C)cc1c2[C@H](C)NC(=O)CO [Example 13] | – | 8.3 | – | 80.2 | – | 2.8
CC[C@@]1(O)C(=O)OCc2c1cc1n(c2=O)Cc2c-1nc1cc(F)c(C)cc1c2[C@H](N)CO [Example 39b] | 9.1 | 4.6 | 1.65 | – | – | –
CC[C@@]1(O)C(=O)OCc2c1cc1n(c2=O)Cc2c-1nc1ccccc1c2[C@@H](C)N [Example 3] | 120 | 15.5 | 11.2 | – | – | –
CC[C@@]1(O)C(=O)OCc2c1cc1n(c2=O)Cc2c-1nc1ccc(OC)cc1c2[C@@H](C)O [Example 31d] | 8.3 | 8.1 | 2.3 | – | – | –
CC[C@@]1(O)C(=O)OCc2c1cc1n(c2=O)Cc2c-1nc1cc(F)c(C)c(C)c1c2[C@@H](C)N [Example 29b] | 6.6 | 2.1 | 0.72 | – | – | –
CC[C@@]1(O)C(=O)OCc2c1cc1n(c2=O)Cc2c-1nc1ccc(O)cc1c2[C@@H](C)N [Example 5] | 600 | 12.3 | 20.3 | – | – | –
